The values below come from paper PMC10353187, “Discovery of a new potent oxindole multi-kinase inhibitor among a series of designed 3-alkenyl-oxindoles with ancillary carbonic anhydrase inhibitory activity as antiproliferative agents” (BMC Chemistry, 2023).

SMILES strings stand for the structures.

For orientation: inhibition means the share of the control response that was lost under treatment.

Holding throughout (experiment): NCI-60 single-dose antiproliferative assay (SRB)
Common to all, as to type: cell-based

One assay relates to HCC-2998. As to conditions: Homo sapiens; 10 μM single dose; HCC-2998, Colon cancer; read-out: Cell Growth inhibition Percent. In outline:
(§1)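 Single dose 10 µM (final), 48 h, 37 °C, 5% CO2; RPMI 1640/5% FBS. Endpoint: TCA fixation, 0.4% SRB, absorbance 515 nm. % growth = (Ti–Tz)/(C–Tz)×100, or (Ti–Tz)/Tz×100 when Ti < Tz; reported as GI%.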

Another assay concerns UACC-257. As to conditions: Homo sapiens; 10 μM single dose; UACC-257, Melanoma; read-out: Cell Growth inhibition Percent. In outline: as §1
The subject of another assay is SK-MEL-28. As to conditions: Homo sapiens; 10 μM single dose; SK-MEL-28, Melanoma; read-out: Cell Growth inhibition Percent. The gist of the method: as §1
The subject of the next assay is NCI/ADR-RES. As to conditions: Homo sapiens, 10 μM single dose, Ovarian Cancer, read-out: Cell Growth inhibition Percent. The gist of the method: as §1
Another assay has as its system HL-60(TB). As to conditions: Homo sapiens, 10 μM single dose, Leukemia, read-out: Cell Growth inhibition Percent.

Take `O=C(Nc1ccc(NC=C2C(=O)Nc3ccccc32)cc1)Nc1nccs1` [Compound 15c, 1-{4-[((2-Oxoindolin-3-ylidene)methyl)amino]phenyl}-3-(thiazol-2-yl)urea]: the inhibition at 10 µM in the assay with HCC-2998 worked out at 26.1%; with UACC-257, 28.4%; with SK-MEL-28, 38.7%; in the assay with NCI/ADR-RES it was 59.2%; in the assay on HL-60(TB) it was 58%.
